Common to all, as to assay type: biochemical
Experiment [1] deals with PKC theta kinase (Homo sapiens, UniProt Q04759). In words: PKC theta coupled-enzyme (NADH consumption) kinase assay. As to conditions: 18 nM PKC theta, 240 μM ATP, 30° C., initial rate at 340 nm; read-out: Ki PKC theta. As to the method: (§1) An assay buffer solution was prepared which consisted of 100 mM HEPES (pH 7.5), 10 mM MgCl2, 25 mM NaCl, 0.1 mM EDTA and 0.01% Brij. […] To 60 μL of this enzyme buffer, in a 384 well plate, was added 2 μL of VRT stock solution in DMSO. […] The enzyme reaction was initiated by the addition of 5 μL stock ATP solution prepared in assay buffer to a final assay concentration of 240 μM. Initial rate data was determined from the rate of change of absorbance at 340 nm (corresponding to stoichiometric consumption of NADH) using a Molecular Devices Spectramax plate reader (Sunnyvale, Calif.) over 15 mins at 30° C. For each Ki determination 12 data points covering the VRT concentration range of 0-20 μM were obtained in duplicate (DMSO stocks were prepared from an initial 10 mM VRT stock with subsequent 1:2 serial dilutions). Ki values were calculated from initial rate data by non-linear regression using the Prism software package (Prism 4.0a, Graphpad Software, San Diego, Calif.).
Chain of PKC theta kinase (Q04759 whole entry): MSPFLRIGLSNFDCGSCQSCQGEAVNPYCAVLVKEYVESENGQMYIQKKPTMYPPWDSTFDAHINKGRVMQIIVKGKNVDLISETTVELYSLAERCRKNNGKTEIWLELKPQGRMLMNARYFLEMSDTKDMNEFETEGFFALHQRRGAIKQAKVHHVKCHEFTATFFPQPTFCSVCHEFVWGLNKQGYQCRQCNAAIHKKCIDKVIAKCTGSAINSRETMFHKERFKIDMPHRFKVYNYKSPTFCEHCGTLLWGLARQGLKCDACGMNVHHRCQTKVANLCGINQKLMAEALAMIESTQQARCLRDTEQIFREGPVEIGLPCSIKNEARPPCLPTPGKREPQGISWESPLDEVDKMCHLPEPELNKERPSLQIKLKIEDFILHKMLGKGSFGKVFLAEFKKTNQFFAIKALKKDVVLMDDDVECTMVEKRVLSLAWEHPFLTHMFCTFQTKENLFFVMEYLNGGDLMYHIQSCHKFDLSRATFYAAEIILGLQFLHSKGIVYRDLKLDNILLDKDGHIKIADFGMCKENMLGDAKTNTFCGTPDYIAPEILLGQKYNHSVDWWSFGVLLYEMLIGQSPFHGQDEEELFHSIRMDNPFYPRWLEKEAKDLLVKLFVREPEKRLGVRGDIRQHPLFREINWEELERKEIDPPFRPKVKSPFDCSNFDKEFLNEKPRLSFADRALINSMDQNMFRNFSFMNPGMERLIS

The target in experiment [2] is PKC delta kinase (Homo sapiens, UniProt Q05655). Kind of experiment: PKC delta coupled-enzyme (NADH consumption) kinase assay. As to conditions: 46 nM PKC delta, 150 μM ATP, 30° C., initial rate at 340 nm. The method, then:
as §1, with “To 16” for “To 60”, “added 1” for “added 2”, “of 16” for “of 5”, “of 150” for “of 240”

For experiment [3], the target named is PKC alpha kinase (Homo sapiens, UniProt P17252). Kind of experiment: PKC alpha coupled-enzyme (NADH consumption) kinase assay. As to conditions: 4.5 nM PKC alpha, 130 μM ATP, 100 μM CaCl2, 30° C.; read-out: Ki PKC alpha. The method, then: An assay buffer solution was prepared which consisted of 100 mM HEPES (pH 7.5), 10 mM MgCl2, 25 mM NaCl, 0.1 mM EDTA, 100 μM CaCl2 and 0.01% Brij. An enzyme buffer containing reagents to final assay concentrations of 0.002% Triton X-100, 100 μg/mL Phosphatidylserine, 20 μg/mL Diacylglycerol, 360 μM NADH, 3 mM phosphoenolpyruvate, 70 μg/mL pyruvate kinase, 24 μg/mL lactate dehydrogenase, 2 mM DTT, 150 μM substrate peptide ([…] SEQ ID NO. 1) and 4.5 nM PKC alpha kinase was prepared in assay buffer. To 16 μL of this enzyme buffer, in a 384 well plate, was added 1 μL of VRT stock solution in DMSO. The mixture was allowed to equilibrate for 10 mins at 30° C. The enzyme reaction was initiated by the addition of 16 μL stock ATP solution prepared in assay buffer to a final assay concentration of 130 μM. Initial rate data was determined from the rate of change of absorbance at 340 nm (corresponding to stoichiometric consumption of NADH) using a Molecular Devices Spectramax plate reader (Sunnyvale, Calif.) over 15 mins at 30° C. For each Ki determination 12 data points covering the VRT concentration range of 0-20 μM were obtained in duplicate (DMSO stocks were prepared from an initial 10 mM VRT stock with subsequent 1:2 serial dilutions). Ki values were calculated from initial rate data by non-linear regression using the Prism software package (Prism 4.0a, Graphpad Software, San Diego, Calif.).

The structures appear in SMILES notation.

By Ki is commonly meant the equilibrium dissociation constant of an inhibitor or competing ligand from its target.

Chain of PKC delta kinase (Q05655 whole entry): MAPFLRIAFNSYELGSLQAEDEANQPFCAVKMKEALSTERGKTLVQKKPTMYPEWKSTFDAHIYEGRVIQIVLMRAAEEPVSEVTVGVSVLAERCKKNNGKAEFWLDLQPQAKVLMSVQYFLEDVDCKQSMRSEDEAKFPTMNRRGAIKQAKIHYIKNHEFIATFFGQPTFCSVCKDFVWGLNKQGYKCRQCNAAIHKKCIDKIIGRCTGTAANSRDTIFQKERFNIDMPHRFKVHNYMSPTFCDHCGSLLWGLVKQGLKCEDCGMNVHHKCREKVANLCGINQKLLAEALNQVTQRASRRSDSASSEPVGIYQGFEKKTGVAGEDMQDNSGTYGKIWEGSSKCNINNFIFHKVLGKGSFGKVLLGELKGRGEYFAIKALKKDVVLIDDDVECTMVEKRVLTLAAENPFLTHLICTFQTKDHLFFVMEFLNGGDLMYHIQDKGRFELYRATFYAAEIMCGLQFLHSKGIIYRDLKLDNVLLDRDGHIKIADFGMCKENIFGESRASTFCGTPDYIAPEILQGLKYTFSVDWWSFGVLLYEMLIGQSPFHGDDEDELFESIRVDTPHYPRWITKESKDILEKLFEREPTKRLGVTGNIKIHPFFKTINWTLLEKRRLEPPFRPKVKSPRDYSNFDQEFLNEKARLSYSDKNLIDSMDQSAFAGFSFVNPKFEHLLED

`COCC(C)(O)C1CN(c2nc(-c3n[nH]c4ncccc34)c(F)cc2Cl)CCN1` (stereo not drawn) [Compound 33]: the Ki is below 50 nM in experiment [1], below 500 nM in experiment [2] and above 1250 nM in experiment [3].
For `CC(C)[C@@](C)(O)C1CN(c2nc(-c3n[nH]c4ncccc34)c(C#N)cc2F)CCN1` (stereo partly drawn) [Compound 34] the same measures were below 50 nM, above 1250 nM and above 1250 nM.
For `CC(C)C(N)[C@H]1CCN(c2nc(-c3n[nH]c4ncccc34)c(F)cc2C#N)C1` (stereo partly drawn) [Compound 37] the same measures were below 50 nM, below 500 nM and below 2800 nM.
As to `CC(C)[C@](C)(O)[C@@H]1CN(c2nc(-c3n[nH]c4ncccc34)c(F)cc2Cl)CCN1` [Compound 38], the Ki was below 50 nM in experiment [1], below 500 nM in experiment [2] and below 2800 nM in experiment [3].
For `CC(CO)[C@@](C)(O)[C@@H]1CN(c2nc(-c3n[nH]c4ncccc34)c(F)cc2F)CCN1` (stereo partly drawn) [Compound 39] the same measures were below 50 nM, below 500 nM and above 1250 nM.
Consider `CC(CO)[C@@](C)(O)[C@@H]1CN(c2nc(-c3n[nH]c4ncccc34)c(F)cc2F)CCN1` (stereo partly drawn) [Compound 40], for which the Ki in experiment [1] was below 1 nM; in experiment [2], below 50 nM; in experiment [3] it was below 500 nM.
`CC(C)(O)[C@@](C)(O)[C@@H]1CN(c2nc(-c3n[nH]c4ncccc34)c(F)cc2F)CCN1` [Compound 41]: the inhibitory constant (Ki) in experiment [1] is below 1 nM; in experiment [2] it was below 500 nM; in experiment [3] it was below 500 nM.
For the compound `CC(C)(O)[C@@](C)(O)[C@@H]1CN(c2nc(-c3n[nH]c4ncccc34)c(F)cc2Cl)CCN1` [Compound 42], the Ki was below 1 nM in experiment [1], below 50 nM in experiment [2] and below 2800 nM in experiment [3].
Regarding `CC(C)[C@@](C)(O)[C@@H]1CN(c2nc(-c3n[nH]c4ncccc34)c(C#N)cc2F)CCN1` [Compound 43], the figures for the Ki in experiment [1], in experiment [2] and in experiment [3] were below 50 nM, above 1250 nM and above 1250 nM, respectively.
`CC(C)[C@@](C)(O)[C@@H]1CN(c2nc(-c3n[nH]c4ncccc34)c(F)cc2CO)CCN1` [Compound 44]: the figures for the Ki in experiment [1], in experiment [2] and in experiment [3] were below 1 nM, below 10 nM and below 500 nM, respectively.
For `CC(CO)[C@@](C)(O)[C@@H]1CN(c2nc(-c3n[nH]c4ncccc34)c(F)cc2Cl)CCN1` (stereo partly drawn) [Compound 45] the same measures were below 500 nM, above 1250 nM and above 1250 nM.

Source of the values: patent US9067932B2, “Pyrazolopyridine kinase inhibitors” (Vertex Pharmaceuticals Incorporated, priority 2010, dated 2015).
